Results on four compounds are retold here after ChEMBL document CHEMBL5104178, “Nitroimidazopyrazinones with Oral Activity against Tuberculosis and Chagas Disease in Mouse Models of Infection” (J Med Chem, 2022).

Values after ≈ are worked out from the molar mass of the structure shown.

The subject of data set [1] is Trypanosoma cruzi. In words: Antitrypanosomal activity against Trypanosoma cruzi Tulahuen amastigotes infected in mouse 3T3 cells assessed as inhibition of parasite growth incubated for 48 hrs by […] staining based analysis. In kind it is functional, organism-based.
Data set [2] deals with Trypanosoma cruzi. In words: Antitrypanosomal activity against Trypanosoma cruzi Tulahuen amastigotes infected in mouse 3T3 cells assessed as reduction in parasite growth at Emax concentration incubated for 48 hrs by […] staining based analysis. The arrangement: scale not given: the % may be the effect or the level left. It counts as functional.
A short description of data set [3]: Cytotoxicity against mouse 3T3 cells. In kind it is toxicity, cell-based. The settings on record: NIH3T3 cells.
Data set [4] can be described thus: Selectivity index, ratio of CC50 for cytotoxicity against mouse 3T3 cells to IC50 for antitrypanosomal activity against Trypanosoma cruzi Tulahuen amastigotes infected in mouse 3T3 cells. It counts as toxicity, cell-based. Conditions: read-out: Ratio CC50/IC50.
For data set [5], the system named is Mycobacterium tuberculosis. In words: Substrate activity at Mycobacterium tuberculosis Ddn expressed in Escherichia coli BL21 (DE3) assessed as oxidation of F420H2 by measuring Kcat by spectrophotometric analysis.
The test system of data set [6] is Mycobacterium tuberculosis. Put plainly: Substrate activity at Mycobacterium tuberculosis Ddn expressed in Escherichia coli BL21 (DE3) assessed as oxidation of F420H2 by measuring Km by spectrophotometric analysis.
Data set [7] relates to Mycobacterium tuberculosis. Put plainly: Substrate activity at Mycobacterium tuberculosis Ddn expressed in Escherichia coli BL21 (DE3) assessed as oxidation of F420H2 by measuring Kcat/Km by spectrophotometric analysis.
Data set [8] relates to Mycobacterium tuberculosis. In words: Antimycobacterial activity against Mycobacterium tuberculosis H37Rv ATCC 27294 assessed as bacterial growth inhibition at 4 to 32 ug/ml incubated for 5 days under hypoxic condition by resazurin microtiter assay relative to control. In kind it is functional. The settings on record: dose 4-32 µg/ml; time 5 day. In general terms: Resazurin is reduced to fluorescent resorufin, in cell work by metabolically active cells.

Data set [9] is described as follows: Solubility of compound in water by LC-UV analysis. In kind it is physicochemical. Conditions: water; read-out: solubility.
For data set [10], the system named is Mycobacterium avium. Put plainly: Antimycobacterial activity against Mycobacterium avium ATCC 25291 assessed as bacterial growth inhibition incubated for 6 days under normoxic condition by resazurin microtiter assay. In kind it is functional. Conditions: ATCC 25291, 144 h, time 6 day.
The subject of data set [11] is Mycolicibacterium smegmatis. In words: Antimycobacterial activity against Mycobacterium smegmatis mc2155 ATCC 700084 assessed as bacterial growth inhibition incubated for 24 hrs under normoxic condition by resazurin microtiter assay. It counts as functional.
Data set [12] in a line: Plasma protein binding in human. It counts as ADME, cell-free. The settings on record: read-out: PPB (converted).
Data set [13] can be described thus: Plasma protein binding in mouse. The settings on record: read-out: PPB (converted). It counts as ADME, cell-free.
Data set [14] can be described thus: Metabolic stability in human microsomes assessed as compound remaining measured after 2 hrs. It counts as ADME, Microsome. The settings on record: read-out: Stability.
Data set [15] can be described thus: Metabolic stability in mouse microsomes assessed as compound remaining measured after 2 hrs. In kind it is ADME, Microsome. Conditions: read-out: Stability.
Data set [16] in a line: Stability in human plasma assessed as compound remaining measured after 2 hrs. It counts as ADME, cell-free. The settings on record: read-out: Stability.
Data set [17] is described as follows: Cmax in CD-1 mouse at 20 mg/kg, po administered as DMSO/PEG400 formulation measured upto 24 hrs by LC-MS/MS analysis. It counts as ADME, organism-based. More on the design: dose 20 mg/kg, time < 24 hrs, route po. Conditions: in vivo.
The nature of data set [18]: AUC(0 to 8 hrs) in CD-1 mouse at 20 mg/kg, po administered as DMSO/PEG400 formulation measured upto 24 hrs by LC-MS/MS analysis. In kind it is ADME, organism-based. The arrangement: dose 20 mg/kg, time < 24 hrs, route po. The settings on record: in vivo.
Data set [19] is described as follows: Tmax in CD-1 mouse at 20 mg/kg, po administered as DMSO/PEG400 formulation measured upto 24 hrs by LC-MS/MS analysis. In kind it is ADME, organism-based. The settings on record: in vivo.
Data set [20] is described as follows: Oral bioavailability in CD-1 mouse at 20 mg/kg administered as DMSO/PEG400 formulation measured upto 24 hrs by LC-MS/MS analysis. The settings on record: in vivo. It counts as ADME, organism-based.
Data set [21] can be described thus: Volume of distribution at steady state in CD-1 mouse at 5 mg/kg, iv administered as DMSO/PEG400 formulation measured upto 24 hrs by LC-MS/MS analysis. It counts as ADME, organism-based. Conditions: in vivo, read-out: Vdss.
The nature of data set [22]: Clearance in CD-1 mouse at 5 mg/kg, iv administered as DMSO/PEG400 formulation measured upto 24 hrs by LC-MS/MS analysis. In kind it is ADME, organism-based. Conditions: in vivo.
Data set [23] in a line: Half life in CD-1 mouse at 5 mg/kg, iv administered as DMSO/PEG400 formulation measured upto 24 hrs by LC-MS/MS analysis. In kind it is ADME, organism-based. Conditions: in vivo.
Data set [24] has as its system Mycobacterium tuberculosis. In words: Antimycobacterial activity against Mycobacterium tuberculosis H37Rv ATCC 27294 assessed as bacterial growth inhibition incubated for 5 days under normoxic condition by resazurin microtiter assay. It counts as functional. Conditions: H37Rv ATCC 27294, 120 h, time 5 day.
Data set [25] deals with Mycobacterium tuberculosis. Put plainly: Antimycobacterial activity against Mycobacterium tuberculosis H37Ra ATCC 25177 assessed as bacterial growth inhibition incubated for 6 days under normoxic condition by resazurin microtiter assay. In kind it is functional. The settings on record: H37Ra ATCC 25177, 144 h, time 6 day.
Data set [26] has as its system Mycobacterium tuberculosis. In words: Antimycobacterial activity against Mycobacterium tuberculosis H37Rv ATCC 27294 assessed as bacterial growth inhibition incubated for 5 days under hypoxic condition by resazurin microtiter assay. In kind it is functional. Conditions: H37Rv ATCC 27294, 120 h, time 5 day.
The test system of data set [27] is Mycobacterium tuberculosis. In words: Antimycobacterial activity against Mycobacterium tuberculosis infected in BALB/c mouse assessed as log reduction in bacterial load in lung by measuring colony forming unit at 15 mg/kg, po administered 5 days per week for 3 weeks starting from day 10 post infection (reference value: 8.8 x 10^3 CFU). It counts as functional.

As to `CC[C@@H]([C@H](C)O)n1ncn(-c2ccc(N3CCN(c4ccc(OC[C@@H]5CO[C@@](Cn6cncn6)(c6ccc(F)cc6F)C5)cc4)CC3)cc2)c1=O` [POSACONAZOLE], the IC50 in data set [1] (NIH3T3, 48 h) stood at 2 nM. Further, the IC90 in data set [1] (NIH3T3, time 48 hrs) worked out at 4 nM. For the same compound, in data set [2], the Activity was determined as 87%. For the same compound, in data set [3], the CC50 is above 1000 nM. Moreover, in data set [4], the selectivity ratio is above 569.
Regarding `O=c1c2nc([N+](=O)[O-])cn2ccn1Cc1cncc(-c2ccc(OC(F)(F)F)cc2)c1`, in [5], the catalytic constant (kcat) was 1.2 10^-2/s. Moreover, the Km in [6] stood at 2.6 µM. The kcat/Km in data set [7] was found to be 4470 M⁻¹ s⁻¹. In data set [8], the “inhibition (INH)” value is given as 82%.
Take `O=c1c2nc([N+](=O)[O-])cn2ccn1Cc1cccc(OC(F)(F)F)c1`: the solubility in data set [9] is 5.4 µM (≈ 1.91 µg/mL). Moreover, the MIC in data set [10] and in data set [11] was above 32 µg/mL each time. Further, the kcat in data set [5] is 3.1 10^-3/s. The Km in data set [6] is 45 µM. Besides, the kcat/Km in data set [7] was 70 M⁻¹ s⁻¹. Further, the fraction unbound in [12] and in [13] was below 0.01 throughout. The remaining at 2 h in [14] is above 99%; in data set [15], 97%; in data set [16], 99%. For the same compound, the Cmax in data set [17] came out at 2900 ng/mL. The compound further registered an AUC(0-t) at 24 h in data set [18] of 15600 ng·h/mL. In addition, in data set [19], the Tmax is 3 h. Moreover, the bioavailability in data set [20] is 73%. The Vd in data set [21] was 1.1 L/kg. This compound displayed a clearance in data set [22] of 10.1 mL/min/kg. This compound showed a half-life in [23] of 1.1 h.
Regarding `CO[C@H]1/C=C/O[C@@]2(C)Oc3c(C)c(O)c4c(O)c(c(/C=N/N5CCN(C)CC5)c(O)c4c3C2=O)NC(=O)/C(C)=C\C=C\[C@H](C)[C@H](O)[C@@H](C)[C@@H](O)[C@@H](C)[C@H](OC(C)=O)[C@@H]1C` [RIFAMPIN], the MIC in data set [24] was 0.005 µg/mL (≈ 0.00608 µM); in data set [25], below 0.016 µg/mL; in data set [10] it was 4 µg/mL (≈ 4.86 µM); in data set [11] it was 4 µg/mL (≈ 4.86 µM); in data set [26], 0.08 µg/mL (≈ 0.0972 µM). Moreover, in data set [27], the “log(activity)” value came to 2.7.

As usually defined, the IC50 is the concentration needed to halve the response being measured. The term IC90 denotes the point of the concentration-response curve where the effect stands at 90%. The term CC50 denotes the concentration that lowers cell viability or growth by half. In general, kcat refers to the maximal rate divided by the concentration of active sites. In general, Km refers to the substrate concentration at which the rate is half of its maximum. Broadly, the kcat/Km is the second-order rate constant that governs catalysis at low substrate concentration. As usually defined, the solubility is the concentration that dissolves in the medium under given conditions. As usually defined, the MIC is the lowest concentration found to suppress growth. One may read the Cmax as the maximum level reached in the sampled fluid or tissue. Usually AUC(0-t) stands for exposure summed from dosing to a finite time, without extrapolation to infinity. For orientation: Tmax means the time at which the peak concentration occurs. As a reminder, the bioavailability is the share of a dose that reaches the circulation, judged against a reference dose that is usually intravenous. The clearance is the volume of plasma or blood freed of the substance per unit of time. By half-life is commonly meant the time needed for the level to fall by half in the phase considered.
